# In ChEMBL document CHEMBL1201862, “PubChem BioAssay data set” (2004):
#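 48-hour exposure; five concentrations; linearly interpolated endpoints. GI50: concentration for 50% inhibition of growth.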 The source made the active and inactive calls. Cut-off read from the data, not from the text of the source: active = GI50 up to about 1.1 µM and inactive = higher.
# Columns and labels:
# Experiment in all cases: inhibition of tumour cell growth, NCI panel, 48 h
# SNB-78 = tested on: SNB-78
# XF498 = tested on: XF498
# KM-20L2 = tested on: KM-20L2
# RXF 631 = tested on: RXF 631
# LXFL 529 = tested on: LXFL 529
# DMS-273 = tested on: DMS-273
# HOP-18 = tested on: HOP-18
# M19-MEL = tested on: M19-MEL
# DMS-114 = tested on: DMS-114
SMILES,GI50 (SNB-78),GI50 (XF498),GI50 (KM-20L2),GI50 (RXF 631),GI50 (LXFL 529),GI50 (DMS-273),GI50 (HOP-18),GI50 (M19-MEL),GI50 (DMS-114)
[N-]=[N+]=Nc1ccc(S(=O)(=O)Oc2cc(OS(=O)(=O)c3ccc(N=[N+]=[N-])cc3)cc(OS(=O)(=O)c3ccc(N=[N+]=[N-])cc3)c2)cc1,> 100 µM (inactive),> 100 µM (inactive),> 100 µM (inactive),> 100 µM (inactive),> 100 µM (inactive),> 100 µM (inactive),> 100 µM (inactive),> 100 µM (inactive),> 100 µM (inactive)
C[C@]12CCC(=O)C=C1CC[C@@H]1C2CC[C@]2(C)Nc3c(cnn3-c3ccccc3)CC12 (stereo partly specified),> 100 µM (inactive),> 100 µM (inactive),> 100 µM (inactive),96.8 µM (inactive),> 100 µM (inactive),> 100 µM (inactive),–,> 100 µM (inactive),> 100 µM (inactive)
CCN(CC)CCCN(c1cc(OC)cc2nccnc12)S(=O)(=O)c1ccc(C)cc1,–,> 100 µM (inactive),> 100 µM (inactive),> 100 µM (inactive),> 100 µM (inactive),> 100 µM (inactive),> 100 µM (inactive),> 100 µM (inactive),> 100 µM (inactive)
C=C1CC2(CCS(=O)(=O)c3ccccc32)OC1=O (stereo unspecified),9.51 µM (inactive),13.2 µM (inactive),14.3 µM (inactive),20.7 µM (inactive),4.4 µM (inactive),16.5 µM (inactive),3.63 µM (inactive),17.5 µM (inactive),3.94 µM (inactive)
CCC1CN2CCc3cc(OC)c(OC)cc3C2CC1CC1c2cc(OC)c(OC)cc2CCN1C(=O)C1CCCN1 (stereo unspecified),47.4 µM (inactive),18.8 µM (inactive),–,28.7 µM (inactive),24.5 µM (inactive),35.3 µM (inactive),33.7 µM (inactive),19.2 µM (inactive),–
CC(C)(Br)C(Br)CC/C(=C/CBr)CBr.CC(C)(Br)C(Br)CC/C(=C\CBr)CBr (stereo unspecified),4.46 µM (inactive),–,–,–,3.3 µM (inactive),1.65 µM (inactive),18 µM (inactive),2 µM (inactive),–
CCOc1ccc(NC(=O)CC2C(=O)Nc3ccccc3S2(=O)=O)cc1 (stereo unspecified),90.4 µM (inactive),29.8 µM (inactive),> 100 µM (inactive),> 100 µM (inactive),> 100 µM (inactive),–,> 100 µM (inactive),> 100 µM (inactive),> 100 µM (inactive)
Cc1nsc2cc(Cl)n(C)c(=O)c12,> 100 µM (inactive),> 100 µM (inactive),> 100 µM (inactive),> 100 µM (inactive),> 100 µM (inactive),> 100 µM (inactive),–,> 100 µM (inactive),> 100 µM (inactive)
COc1c(C)c(O)c2c(c1C)OC(c1ccccc1)CC2=O (stereo unspecified),> 100 µM (inactive),–,31.6 µM (inactive),–,35.2 µM (inactive),59.6 µM (inactive),25 µM (inactive),38.1 µM (inactive),40.8 µM (inactive)
O=C1c2cccc3cccc(c23)C(=O)N1CCCN1CCN(CCCN2C(=O)c3cccc4cccc(c34)C2=O)CC1,> 100 µM (inactive),> 100 µM (inactive),> 100 µM (inactive),> 100 µM (inactive),> 100 µM (inactive),> 100 µM (inactive),> 100 µM (inactive),> 100 µM (inactive),> 100 µM (inactive)
COc1nc(C(=O)O)c(Cl)c(OC)c1Cl,–,–,> 100 µM (inactive),–,–,–,–,> 100 µM (inactive),> 100 µM (inactive)
COCCOc1cc(C)cc(/C=C(C)/C=C/C2=C(C)CCCC2(C)C)n1,81.3 µM (inactive),43.6 µM (inactive),–,59.8 µM (inactive),45.8 µM (inactive),48.5 µM (inactive),> 100 µM (inactive),32.8 µM (inactive),28.1 µM (inactive)
O=C(Nc1ccccc1[N+](=O)[O-])c1ccccc1,> 100 µM (inactive),> 100 µM (inactive),> 100 µM (inactive),64.1 µM (inactive),> 100 µM (inactive),> 100 µM (inactive),> 100 µM (inactive),> 100 µM (inactive),70.1 µM (inactive)
COc1ccc(C)cc1-c1ccc(-c2cc(C)ccc2OC)o1,> 100 µM (inactive),–,> 100 µM (inactive),> 100 µM (inactive),> 100 µM (inactive),> 100 µM (inactive),–,54.6 µM (inactive),> 100 µM (inactive)
CCOC(=O)C(=O)Nc1ccccc1OCC,> 100 µM (inactive),> 100 µM (inactive),–,–,> 100 µM (inactive),–,> 100 µM (inactive),> 100 µM (inactive),> 100 µM (inactive)
NNC(=O)C(=O)NN=C(C(Cl)(Cl)CO)C(Cl)(Cl)CO,21.5 µM (inactive),16.6 µM (inactive),44.5 µM (inactive),21.3 µM (inactive),28.2 µM (inactive),65.9 µM (inactive),> 100 µM (inactive),20.1 µM (inactive),–
CC(=O)NC1=C(NCCO)C(=O)c2ccccc2C1=O,> 50 µM (inactive),> 50 µM (inactive),24.2 µM (inactive),–,> 50 µM (inactive),> 50 µM (inactive),–,9.79 µM (inactive),–
FC(F)(F)c1nc(-c2ccccc2)oc1Sc1nnc(Sc2oc(-c3ccccc3)nc2C(F)(F)F)s1,34.1 µM (inactive),9.06 µM (inactive),> 100 µM (inactive),36.9 µM (inactive),27.8 µM (inactive),46.8 µM (inactive),> 100 µM (inactive),23.2 µM (inactive),6.15 µM (inactive)
CN1N=CSC12C(=O)N(c1ccccc1)C(=O)N2c1ccccc1 (stereo unspecified),> 100 µM (inactive),> 100 µM (inactive),> 100 µM (inactive),> 100 µM (inactive),> 100 µM (inactive),> 100 µM (inactive),< 0.01 µM (active),> 100 µM (inactive),> 100 µM (inactive)
CC1SC2=NC3=C(c4ccccc4C3=O)C(c3ccc(Cl)cc3)N2C1=O (stereo unspecified),–,> 100 µM (inactive),> 100 µM (inactive),> 100 µM (inactive),> 100 µM (inactive),> 100 µM (inactive),–,> 100 µM (inactive),> 100 µM (inactive)
CC(=O)OCC1OC(n2ccc(=O)[nH]c2=O)C(OC(C)=O)C(OC(C)=O)C1OC(C)=O (stereo unspecified),–,> 100 µM (inactive),> 100 µM (inactive),–,> 100 µM (inactive),> 100 µM (inactive),> 100 µM (inactive),> 100 µM (inactive),> 100 µM (inactive)
COc1ccc(/C=C/C(=O)c2sc(NC(=S)NC(=O)c3ccccc3F)nc2C)cc1OC,> 100 µM (inactive),–,> 100 µM (inactive),–,–,> 100 µM (inactive),22.8 µM (inactive),> 100 µM (inactive),> 100 µM (inactive)
COC(=O)[C@@]12C3=NO[C@]1(C(=O)OC)C(O[Si](C)(C)C(C)(C)C)[C@@H](OC(C)=O)[C@@H](OC(C)=O)[C@@H]2[C@@H](OCc1ccccc1)CC3 (stereo partly specified),> 96.2 µM (inactive),15.8 µM (inactive),> 100 µM (inactive),–,4.45 µM (inactive),6.05 µM (inactive),> 100 µM (inactive),> 100 µM (inactive),6.35 µM (inactive)
